Measured values as given in patent US7166622B2, “Substituted phenylsulfonamide inhibitors of beta amyloid production” (Wyeth, priority 2002, dated 2007).
“And” between values parts separate entries of the source, which are not always exact repeats. Identical values can stand only once.

Experiments:
[1] = test system: beta amyloid production; experiment: Repressor Release Assay (RRA); format: cell-based; conditions: for APPI % of Example #98: relative to Example 98; for fold induction at 20 µg/mL: read-out: APPI Fold Increase
Method: CHO-K1 cells were cultured in whole DMEM media (DMEM—High Glucose with 10% fetal bovine serum, 1% Non-essential Amino Acids, and 1% Penicillin-Streptomycin) at 37° C. with 5% CO2. Two million cells were plated into 10-cm dishes 24 hrs prior to transfection.
Transient transfections were completed as recommended by Gibco BRL using their Lipofectamine Plus system. First, 6 μg of pRSVO-luc and 6 μg of APP-lacI construct DNA were added to 460 μL Opti-Mem transfection media and incubated with 30 μL Plus reagent for 15 minutes. Then, a lipid mixture of 40 μL Lipofectamine reagent and 460 μL Opti-Mem transfection media was incubated with the DNA-Plus reagent mixture for 15 minutes. During the DNA-lipid incubation, the CHO-K1 cells were washed once and covered in 5.0 mL DMEM media without Penicillin-Streptomycin. The DNA-lipid preparation was then layered onto these cells and incubated at 37° C. overnight.
[…] transfected cells per well (100 μL total volume) were plated into sterile, opaque Packard 96-well Culture-Plates in clear DMEM whole media (DMEM—without phenol red) and incubated at 37° C. with 5% CO2 for 3-5 hours.
Compounds were diluted using two different protocols; one protocol was used for compounds supplied neat (weighed powder in vial) and the other protocol was used for compounds supplied in solution (20 mM in DMSO in 96-well plates). For both protocols, 25 mM Hepes and 25 mM Hepes/1% DMSO were prepared fresh to be used as diluent. The Hepes/DMSO was used as the diluent control on all experimental plates.
The following table depicts the steps for compound dilution (please note that the last step was the addition of compound to cells/media in tissue culture plate).
Because some compounds were present in 96-well format at 20 mM, the following represents the protocol for their dilution (note that an average molecular weight of these compounds was used to calculate these dilutions and as above, the last step was the addition of compound to cells/media in tissue culture plate).
Once the compounds were diluted, they were applied in duplicate on cells in tissue culture plates (prepared above). Cells were incubated with compound at 37° C. with 5% CO2 for an additional 36-48 hours.
Luciferase assays (LucLite reagent, Packard) were performed and were read on a Packard TopCount instrument. Media was removed from each 96-well plate and replaced with 100 μL PBS per well (with Mg^2+ and Ca^2+). An equal volume (100 μL) of the LucLite lysis/substrate buffer was added to each well and the plates were sealed and mixed in the dark on a rotary shaker for 15-30 minutes at room temperature. Luciferase readings were then taken on the TopCount instrument. Measurements were expressed as relative light units (RLU) and are calculated and analyzed in MS Excel as follows: […]

[2] = test system: CHO-K1 cells; experiment: Toxicity in RRA (loss of luciferase signal); conditions: toxicity = loss of signal (<0.75 fold increase)
Method: The beta amyloid inhibitory activity of the compounds of the present invention was determined using the Repressor Release Assay (RRA).
“Fold Increase” refers to the amount of luciferase activity (measured in relative light units) over diluent control. “SEM” refers to the standard error of the mean for fold increase.

[3] = Conc 20 μg/ml, luciferase activity over diluent control
[4] = Conc 10 μg/ml, luciferase activity over diluent control

## 2-fluoro-N-[(1S)-1-(hydroxy 1-methylethyl]benzenesulfonamide [Example 117]
[1]; [3]
  APPI Fold Increase: 1.5 fold
[1]; Conc 20 μg/ml
  APPI % of Example #98: 31%
[2]; Conc 20 μg/ml
  (%)APPI Toxicity: 1 (1=non-toxic)

## 3,4-dibromo-N-[(11S)-1-(hydroxymethyl)-2,2-dimethylpropyl]benzenesulfonamide [Example 29]
[1]; [3]
  APPI Fold Increase: 2.1 fold
[1]; Conc 20 μg/ml
  APPI % of Example #98: 49.5%
[2]; Conc 20 μg/ml
  (%)APPI Toxicity: 1 (1=non-toxic)

## 3-chloro-N-{(1S)-2-hydroxy-2-isopropenyl-3-methyl-1-[(18)-1-methylpropyl]-3-butenyl}benzenesulfonamide [Example 257]
[1]; [4]
  APPI Fold Increase: 2.54 fold
[1]; Conc 10 μg/ml
  APPI % of Example #98: 94.5%
[1]; [3]
  APPI Fold Increase: 2.5 fold
[1]; Conc 20 μg/ml
  APPI % of Example #98: 68.8%
[2]; Conc 10 μg/ml
  (%)APPI Toxicity: 1 (1=non-toxic)
[2]; Conc 20 μg/ml
  (%)APPI Toxicity: 1 (1=non-toxic)

## 3-chloro-N-{(1S,3E)-2-hydroxy-3-methyl-2-[(1 F)-1-methyl-1-propenyl]-1-[(1S)-1-methylpropyl]-3-pentenyl}benzenesulfonamide [Example 259]
[1]; Conc 0.3 μg/ml, luciferase activity over diluent control
  APPI Fold Increase: 1.7 fold
[1]; Conc 0.3 μg/ml
  APPI % of Example #98: 31.1%
[1]; Conc 1 μg/ml, luciferase activity over diluent control
  APPI Fold Increase: 1.7 fold
[1]; Conc 1 μg/ml
  APPI % of Example #98: 31.1%
[1]; Conc 3 μg/ml, luciferase activity over diluent control
  APPI Fold Increase: 1.7 fold
[1]; Conc 3 μg/ml
  APPI % of Example #98: 31.5%
[1]; [4]
  APPI Fold Increase: 2.19 fold and 1.6 fold and 1.7 fold
[1]; [3]
  APPI Fold Increase: 4.4 fold
[1]; Conc 20 μg/ml
  APPI % of Example #98: 119.7%
[2]; Conc 0.3 μg/ml
  (%)APPI Toxicity: 1 (1=non-toxic)
[2]; Conc 1 μg/ml
  (%)APPI Toxicity: 1 (1=non-toxic)
[2]; Conc 3 μg/ml
  (%)APPI Toxicity: 1 (1=non-toxic)
[2]; Conc 10 μg/ml
  (%)APPI Toxicity: 1 (1=non-toxic)
[2]; Conc 20 μg/ml
  (%)APPI Toxicity: 1 (1=non-toxic)

## 4-bromo-N-((1S,2 S)-1-{hydroxy-[4-(methylsulfanyl)phenyl]methyl}-2-methylbutyl) benzenesulfonamide [Example 163]
[1]; [4]
  APPI Fold Increase: 1.64 fold
[1]; Conc 10 μg/ml
  APPI % of Example #98: 69.41%
[2]; Conc 10 μg/ml
  (%)APPI Toxicity: 1 (1=non-toxic)

## C[C@H](NC(=O)Cc1cc(F)cc(F)c1)C(=O)N[C@H](C(=O)OC(C)(C)C)c1ccccc1 [DAPT, reference compound]
[1]; at 10 μg/mL, luciferase activity over diluent control, transfected CHO-K1 cells
  fold increase in luciferase activity: 6.0-28.1 fold increase

## CC[C@H](C)[C@@H](CO)NS(=O)(=O)c1ccccc1Br [Example 1, 2-Bromo-N-[(1S,2S)-1-(hydroxymethyl)-2-methylbutyl]benzenesulfonamide]
[1]; [3]
  fold induction at 20 µg/mL: 1.6
[2]; Conc 20 μg/ml
  (%)APPI Toxicity: 1 (1=non-toxic)

## CC[C@H](C)[C@@H](CO)NS(=O)(=O)c1cccc(Br)c1 [Example 2, 3-bromo-N-[(1S,2S)-1-(hydroxymethyl)-2-methylbutyl]benzenesulfonamide]
[1]; [3]
  fold induction at 20 µg/mL: 2.8
[2]; Conc 20 μg/ml
  (%)APPI Toxicity: 1 (1=non-toxic)

## CC[C@H](C)[C@@H](CO)NS(=O)(=O)c1cccc(Cl)c1 [Example 3, 3-chloro-N-[(1S,2S)-1-(hydroxymethyl)-2-methylbutyl]benzenesulfonamide]
[1]; [3]
  fold induction at 20 µg/mL: 3.6
[2]; Conc 20 μg/ml
  (%)APPI Toxicity: 1 (1=non-toxic)

## CC[C@H](C)[C@@H](CO)NS(=O)(=O)c1ccc(Cl)c2nnoc12 [Example 4, 4-chloro-N-[(1S,2S)-1-(hydroxymethyl)-2-methylbutyl]-1,2,3-benzoxadiazole-7-sulfonamide]
[1]; [3]
  fold induction at 20 µg/mL: 1.5
[2]; Conc 20 μg/ml
  (%)APPI Toxicity: 1 (1=non-toxic)

## CC[C@H](C)[C@@H](CO)NS(=O)(=O)c1ccc(F)cc1Cl [Example 5, 2-chloro-4-fluoro-N-[(1S,2S)-1-(hydroxymethyl)-2-methylbutyl]benzenesulfonamide]
[1]; [3]
  fold induction at 20 µg/mL: 2.5
[2]; Conc 20 μg/ml
  (%)APPI Toxicity: 1 (1=non-toxic)

## CC[C@H](C)[C@@H](CO)NS(=O)(=O)c1cc(Cl)ccc1OC [Example 6, 5-chloro-N-[(1S,2S)-1-(hydroxymethyl)-2-methylbutyl]-2-methoxybenzenesulfonamide]
[1]; [3]
  fold induction at 20 µg/mL: 1.7
[2]; Conc 20 μg/ml
  (%)APPI Toxicity: 1 (1=non-toxic)

## CC[C@H](C)[C@@H](CO)NS(=O)(=O)c1c(C)cccc1Cl [Example 7, 2-chloro-N-[(1S,2S)-1-(hydroxymethyl)-2-methylbutyl]-6-methylbenzenesulfonamide]
[1]; [3]
  fold induction at 20 µg/mL: 1.6
[2]; Conc 20 μg/ml
  (%)APPI Toxicity: 1 (1=non-toxic)

## CC[C@H](C)[C@@H](CO)NS(=O)(=O)c1cc(Cl)cc(Cl)c1 [Example 8, 3,5-dichloro-N-[(1S,2S)-1-(hydroxymethyl)-2-methylbutyl]benzenesulfonamide]
[1]; [3]
  fold induction at 20 µg/mL: 2
[2]; Conc 20 μg/ml
  (%)APPI Toxicity: 1 (1=non-toxic)

## CC[C@H](C)[C@@H](CO)N(CCNC(=O)OC(C)(C)C)S(=O)(=O)c1ccc(Cl)cc1 [Example 42, tert-butyl 2-{([4-chlorophenyl)sulfonyl][(1S,2S)-1-(hydroxymethyl)-2-methylbutyl]amino} ethyl carbamate]
[1]; [3]
  APPI Fold Increase: 1.9 fold
[1]; Conc 20 μg/ml
  APPI % of Example #98: 71.7%

## CCCCCCC(O)[C@@H](NS(=O)(=O)c1ccc(F)cc1)[C@@H](C)CC (stereo partly drawn) [Example 128, 4-fluoro-N-{(1S)-2-hydroxy-1-[(1S)-1-methylpropyl]octyl}benzenesulfonamide]
[2]; Conc 10 μg/ml
  (%)APPI Toxicity: 1 (1=non-toxic)

## CCCCCC(O)[C@@H](NS(=O)(=O)c1ccc(F)cc1)[C@@H](C)CC (stereo partly drawn) [Example 129, 4-fluoro-N-{(1S)-2-hydroxy-1-[(1S)-1-methylpropyl]heptyl}benzenesulfonamide]
[2]; Conc 10 μg/ml
  (%)APPI Toxicity: 1 (1=non-toxic)

## CC[C@H](C)[C@H](NS(=O)(=O)c1ccc(Br)cc1)C(O)C(C)(C)C (stereo partly drawn) [Example 149, 4-bromo-N-{(1S)-2-hydroxy-3,3-dimethyl-1-[(1S)-1-methylpropyl]butyl}benzenesulfonamide]
[2]; Conc 10 μg/ml
  (%)APPI Toxicity: 1 (1=non-toxic)

## CC[C@H](C)[C@H](NS(=O)(=O)c1ccc(Br)cc1)C(O)CC(C)C (stereo partly drawn) [Example 150, 4-bromo-N-{(S)-2-hydroxy-4-methyl-1-[(1S)-1-methylpropyl]pentyl}benzenesulfonamide]
[2]; Conc 10 μg/ml
  (%)APPI Toxicity: 1 (1=non-toxic)

## CC[C@H](C)[C@H](NS(=O)(=O)c1ccc(Cl)cc1)C(O)C1CCCC1 (stereo partly drawn) [Example 166, 4-chloro-N-{(1S,2S)-1-[cyclopentyl(hydroxy)methyl]-2-methylbutyl}benzenesulfonamide]
[2]; Conc 10 μg/ml
  (%)APPI Toxicity: 1 (1=non-toxic)

## CCCCCC(O)[C@@H](NS(=O)(=O)c1ccc(Cl)cc1)[C@@H](C)CC (stereo partly drawn) [Example 168, 4-chloro-N-{(1S)-2-hydroxy-1-[(1S)-1-methylpropyl]heptyl}benzenesulfonamide]
[2]; Conc 10 μg/ml
  (%)APPI Toxicity: 1 (1=non-toxic)

## C=CCC(O)[C@@H](NS(=O)(=O)c1ccc(Cl)cc1)[C@@H](C)CC (stereo partly drawn) [Example 175, 4-chloro-N-{(1S)-2-hydroxy-1-[(1S)-1-methylpropyl]-4-pentenyl}benzenesulfonamide]
[2]; Conc 10 μg/ml
  (%)APPI Toxicity: 1 (1=non-toxic)

## CC[C@H](C)[C@H](NS(=O)(=O)c1ccccc1F)C(O)C1CCCC1 (stereo partly shown) [Example 202]
[1]; [4]
  APPI Fold Increase: 1.62 fold
[1]; Conc 10 μg/ml
  APPI % of Example #98: 55.79%

## CCCCCC(O)(CCCCC)[C@@H](NS(=O)(=O)c1ccc(Br)cc1)[C@@H](C)CC [Example 212, 4-bromo-N-{(1S)-2-hydroxy-1-[(1S)-1-methylpropyl]-2-pentylheptyl}benzenesulfonamide]
[2]; Conc 10 μg/ml
  (%)APPI Toxicity: 1 (1=non-toxic)

## CC[C@H](C)[C@H](NS(=O)(=O)c1ccc(Br)cc1)C(O)(CC(C)C)CC(C)C [Example 214, 4-bromo-N-{(1S)-2-hydroxy-2-isobutyl-4-methyl-1-[(1S)-1-methylpropyl]pentyl} benzenesulfonamide]
[2]; Conc 10 μg/ml
  (%)APPI Toxicity: 1 (1=non-toxic)

## CCCCCCC(O)(CCCCCC)[C@@H](NS(=O)(=O)c1ccc(F)cc1)[C@@H](C)CC [Example 236, 4-fluoro-N-{(1S)-2-hexyl-2-hydroxy-1-[(1S)-1-methylpropyl]octyl}benzenesulfonamide]
[2]; Conc 10 μg/ml
  (%)APPI Toxicity: 1 (1=non-toxic)

## CC[C@H](C)[C@H](NS(=O)(=O)c1ccc(F)cc1)C(O)(c1cccc2ccccc12)c1cccc2ccccc12 [Example 248, 4-fluoro-N-((1S,2S)-1-{hydroxy[di(1-naphthyl)]methyl}-2-methylbutyl)benzenesulfonamide]
[2]; Conc 10 μg/ml
  (%)APPI Toxicity: 1 (1=non-toxic)
